In article PMC10451034, “Highly Efficient Photosensitizers with Molecular Vibrational Torsion for Cancer Photodynamic Therapy” (ACS Central Science, 2023):

Key:
HepG2 cells = assay: Confocal imaging of cellular uptake, subcellular localization and membrane damage; format: cell-based, human; details: for cellular distribution / Pearson correlation (colocalization) coefficient with MitoTracker Green: HepG2 cells; for cellular distribution: incubated 90 min; for Pearson correlation (colocalization) coefficient with MitoTracker Green: mitochondria; for cell membrane damage on illumination: CLSM, illumination 0-4 min; for photostability in cells: fluorescence intensity in cells during light irradiation
Method: In view of QTCy7-R having strong singlet oxygen generation potency and reasonable wavelength, human hepatocellular carcinoma cells were selected for photoactivity experiments in vitro. On account of their low molecular weights and intrinsic positive cationic charge, QTCy7-R could be quickly taken up by cells within 90 min (Figure S19a,b). […] According to our supposition, the enhanced partial cationic charge caused by the introduction of the EWG in QTCy7-Ac or QTCy7-CHO made it easier for them to cling to the cell membrane with negative charge than to cross it.
Next, in order to verify the disruption effect on cell structural integrity of the ^1O2 generation by QTCy7-R under irradiation, JC-1 staining imaging was conducted to monitor the mitochondria membrane potential. […] On the other hand, cell membrane damage caused by the photooxidation of QTCy7-Ac and QTCy7-CHO could be confirmed by a visualized observation. […] Furthermore, the lactate dehydrogenase (LDH) content in cell culture medium was measured to characterize the extent of cell membrane damage.[49] […]
medium (DMEM, Invitrogen) with 10 % fetal bovine serum (Invitrogen) and 1% penicillinstreptomycin. All cells were treated at 37 °C with the humidified atmosphere containing 5% CO2 and 95% air. Before conducting cell imaging experiments, all types of cells were maintained on 35 mm glass-bottom cell dishes for 24 h.
Confocal fluorescence imaging
After culturing the cells in 35 mm glass-bottom cell dishes for 24 h, the DMEM medium was replaced with saline, then QTCy7-R was added (3 μM). The confocal fluorescence imaging was carried out and images were recorded. (λex = 640 nm, λem = 680-780 nm). In the suborganelle localization experiment s, the cells were incubated with 3 μM QTCy7-R for 90 min and then stained with LysoTracker Green DND 26 (200 nM) and MitoTracker Green FM (200 nM), respectively. After fluorescence imaging, colocalization coefficient was analyzed and recorded. (LysoTracker Green DND 26 and MitoTracker Green FM: λex = 488 nm, λem = 500-550 nm). […]

[1] = UV-vis absorption, fluorescence emission, absolute fluorescence quantum yield and fluorescence lifetime; format: physicochemical; details: for molar extinction coefficient: at absorption peak about 710 nm, DCM; for Δλ, Stokes shift / λem, maximum emission wavelength / τS, fluorescence lifetime: in dichloromethane; for UV-vis absorption maximum in PBS: phosphate-buffered solution (PBS)
Method: First, the UV–vis absorption and fluorescence emission spectra of the series of compounds were measured and analyzed. […] Concurrently, the Stokes shifts of all four compounds were more than 60 nm (Figure 2a,b and Table 1), which could effectively improve the signal-to-noise ratio (SNR) of fluorescence compared to the ordinary TCy7. The fluorescence lifetimes of all four compounds were within 2 ns, indicating no delayed fluorescence generation (Figure 2c and Table 1). […]
Materials and Instrumentation
All the general chemicals used in this paper are purchased from Energy Chemical Co. and Innochem Chemical Co. unless otherwise specified. All solvents were […]
analytically pure. […]
All the other solvents and reagents used in this study were of analytical grade. All the BALB/c mice were purchased from Liaoning […]
III 500 spectrometers. Absorption and emission spectra for all the compounds were achieved on the Agilent Technologies CARY 60 UV -Vis spectrophotometer and VAEIAN CARY Eclipse fluorescence spectrop hotometer (Serial No. FL0812 -M018), […]
respectively. Unless otherwise specified, all spectroscopic tests were performed in a quartz cell (10×10 mm). Fluorescence quantum yield of all the compounds were measured on the HAMAMATSU absolute fluorescence quantum yield spectrometer (Serial No. C11347). Triplet lifetime of compounds were acquired on LP980 laser flash photolysis spectrometer (Edinburgh Instruments, U.K.). The cell confocal laser scanning microscope (CLSM) images were all obtained by using Olympus FV3000 confocal laser scanning microscope. […]
Figure 4, Figure S6 and Figure S7). The spin-orbital coupling (SOC) values between the S1/S1V and T2 were calculated with ORCA 4.13. Hole-Electron analysis was carried […]
ISC rate constants calculation […]
Triplet lifetime measurements
The triplet life of QTCy7-R was measured by LP980 laser flash photolysis spectrometer (Edinburgh Instruments Ltd.) in combination with a Nd:YAG laser (Surelite I-10, Continuum Electro-Optics, Inc.). The oxygen in the sample was removed by aerating nitrogen for 30 min. The samples (5 μM) were excited by a 610 nm laser pulse (1 Hz, 100 mJ per pulse, fwhm ≈ 7 ns) at 300 K. The triplet state decay kinetics were measured at the maximum absorption wavelengths of each compound.
Fluorescence lifetime and femtosecond time-resolved transient absorption spectra […]
The fluorescence lifetimes and femtosecond time-resolved transient absorption spectra of dyes were recorded on a freshly prepared samples using the time-correlated single photon counting (TCSPC) method (PicoQuant PicoHarp 300) at 300 K. The concentration is 10 μM, solvent is DCM.
Hepatoma carcinoma cells (HepG-2 cells), human mammary carcinoma (MCF-7) and mouse breast cancer cells (4T1) were maintained in Dulbecco’s modified Eagle’s

[2] = Oil-water partition coefficient (Log P); format: physicochemical
Method: In order to guarantee the preciseness of the supposition, electrostatic potential (ESP) analysis of the molecular surface was conducted to quantify the surface charge distribution.[48] With a unit positive charge, the surface potential of the molecule was mostly positive. As depicted in Figure 7a, most of the positive electrostatic potential regions on the surface of the molecules were located on the benzothiazole groups in all four compounds, while only a small amount of positive electrostatic potential and negative electrostatic potential are distributed on the benzoquinone group and the oxygen atom, respectively. […] On the contrary, QTCy7-Ph preferred a larger effective surface area at the low surface positive potential region (<55 kcal/mol). In addition, the areas of surface electrostatic potential in QTCy7-Me and QTCy7-Ac were maintained in a median (QTCy7-Ac was partly larger than QTCy7-Me) (Figure 7b). The oil–water partition coefficient (Log P) was also taken into account to study cell uptake. According to Log P (Figure 7c), the introduction of phenyl enhanced the lipophilicity of QTCy7-Ph, resulting a good membrane permeability, whereas the introduction of formyl enhanced the hydrophilicity of QTCy7-CHO, which decreased its cellular uptake capacity. […] This explains why only a small amount of QTCy7-CHO adhered on the membrane surface (Figure 7c).

SMILES	cellular distribution (HepG2 cells)	Pearson correlation (colocalization) coefficient with MitoTracker Green (HepG2 cells)	ΦF, absolute fluorescence quantum yield [1]	molar extinction coefficient [1]	Δλ, Stokes shift [1]	λem, maximum emission wavelength [1]	τS, fluorescence lifetime [1]	UV-vis absorption maximum in PBS [1]	logP [2]	cell membrane damage on illumination (HepG2 cells)	photostability in cells (HepG2 cells)
CCN1/C(=C/C=C2\C=C(c3ccccc3)C=C(/C=C/c3sc4ccccc4[n+]3CC)C2=O)Sc2ccccc21 [QTCy7-Ph]	could get inside cells	0.89	17.2%	approximately 4 × 10^4	72 nm	783 nm	1.90 ns	613 nm	1.69		
CCN1/C(=C/C=C2\C=C(C)C=C(/C=C/c3sc4ccccc4[n+]3CC)C2=O)Sc2ccccc21 [QTCy7-Me]	could get inside cells	0.92	16.7%	approximately 4 × 10^4	66 nm	780 nm	1.70 ns	701 nm	1.43		
CCN1/C(=C/C=C2\C=C(C=O)C=C(/C=C/c3sc4ccccc4[n+]3CC)C2=O)Sc2ccccc21 [QTCy7-CHO]	effectively adhere to the cell membrane		28.0%		60 nm	690 nm	1.82 ns	552 nm	1.17	did not cause severe cell membrane rupture	good photostability
CCOC(=O)C1=C/C(=C\C=C2/Sc3ccccc3N2CC)C(=O)C(/C=C/c2sc3ccccc3[n+]2CC)=C1 [QTCy7-Ac]	effectively adhere to the cell membrane		31.4%		67 nm	703 nm	1.97 ns	610 nm	1.41	formation of distinct bubblelike structures	good photostability
